{"source": "patent US11084800B2", "about": "(Achillion Pharmaceuticals, Inc., priority 2017, dated 2021)", "data": [{"molecular_target": "Human Factor D (Homo sapiens (Human), UniProt P00746)", "sequence (P00746 26-253)": "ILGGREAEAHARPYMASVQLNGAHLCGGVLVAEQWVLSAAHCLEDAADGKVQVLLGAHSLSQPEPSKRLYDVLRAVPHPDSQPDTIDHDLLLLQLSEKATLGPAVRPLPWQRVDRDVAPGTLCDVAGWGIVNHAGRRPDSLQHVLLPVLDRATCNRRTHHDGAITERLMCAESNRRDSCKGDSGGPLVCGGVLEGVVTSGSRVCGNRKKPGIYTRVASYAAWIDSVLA", "assay": "Human Factor D Assay", "type": "biochemical", "conditions": "Factor D inhibition, assay of Example 10; read-out: IC5 (Stars)", "method_in_brief": "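Serum-purified Factor D (80 nM final) preincubated 5 min at room temperature with compound in 50 mM Tris, 1 M NaCl, pH 7.5. Z-L-Lys-SBz and DTNB added at 100 μM each; A405 followed every 30 s for 30 min. IC50 from nonlinear regression of rates versus concentration.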", "units": {"IC50": "µM"}, "values": [{"smiles": "CC(=O)c1nn(CC(=O)N2[C@H](C(=O)Nc3nc(Br)ccc3C)C[C@@]3(CCS(C)(=N)=O)C[C@@H]23)c2c(C)cc(-c3cnc(C)nc3)cc12", "note": "(stereo partly drawn) [Compound 287, (1R,3S,5R)-2-(2-(3-acetyl-7-methyl-5-(2-methylpyrimidin-5-yl)-1H-indazol-1-yl)acetyl)-N-(6-bromo-3-methylpyridin-2-yl)-5-(2-(S-methylsulfonimidoyl)ethyl)-2-azabicyclo[3.1.0]hexane-3-carboxamide]", "IC50": "< 1"}, {"smiles": "CC(=O)c1nn(CC(=O)N2[C@H](C(=O)Nc3nc(Br)ccc3C)C[C@@]3(CCS(C)(=O)=O)C[C@@H]23)c2c(C)cc(-c3cnc(C)nc3)cc12", "note": "[Compound 288, (1R,3S,5R)-2-(2-(3-acetyl-7-methyl-5-(2-methylpyrimidin-5-yl)-1H-indazol-1-yl)acetyl)-N-(6-bromo-3-methylpyridin-2-yl)-5-(2-(methylsulfonyl)ethyl)-2-azabicyclo[3.1.0]hexane-3-carboxamide]", "IC50": "< 1"}, {"smiles": "CC(=O)c1nn(CC(=O)N2[C@H](C(=O)Nc3nc(Br)ccc3CN3C(C)(C)COCC3(C)C)C[C@@]3(C)C[C@@H]23)c2cnc(-c3cnc(C)nc3)cc12", "note": "[Compound 289, (1R,3S,5R)-2-(2-(3-acetyl-5-(2-methylpyrimidin-5-yl)-1H-pyrazolo[3,4-c]pyridin-1-yl)acetyl)-N-(6-bromo-3-((3,3,5,5-tetramethylmorpholino)methyl)pyridin-2-yl)-5-methyl-2-azabicyclo[3.1.0]hexane-3-carboxamide]", "IC50": "< 1"}, {"smiles": "CC(=O)c1nn(CC(=O)N2[C@H](C(=O)Nc3nc(Br)ccc3C)C[C@@]3(CN4CCCC4)C[C@@H]23)c2c(C)cc(-c3cnc(C)nc3)cc12", "note": "[Compound 296, (1R,3S,5R)-2-(2-(3-acetyl-7-methyl-5-(2-methylpyrimidin-5-yl)-1H-indazol-1-yl)acetyl)-N-(6-bromo-3-methylpyridin-2-yl)-5-(pyrrolidin-1-ylmethyl)-2-azabicyclo[3.1.0]hexane-3-carboxamide]", "IC50": "< 1"}, {"smiles": "CC(=O)c1nn(CC(=O)N2[C@H](C(=O)Nc3nc(Br)ccc3C)C[C@@]3(CNC(C)C)C[C@@H]23)c2c(C)cc(-c3cnc(C)nc3)cc12", "note": "[Compound 297, (1R,3S,5R)-2-(2-(3-acetyl-7-methyl-5-(2-methylpyrimidin-5-yl)-1H-indazol-1-yl)acetyl)-N-(6-bromo-3-methylpyridin-2-yl)-5-((isopropylamino)methyl)-2-azabicyclo[3.1.0]hexane-3-carboxamide]", "IC50": "< 1"}, {"smiles": "COC(=O)[C@@H]1CCCN1C[C@@]12C[C@@H](C(=O)Nc3nc(Br)ccc3C)N(C(=O)Cn3nc(C(C)=O)c4cc(-c5cnc(C)nc5)cc(C)c43)[C@@H]1C2", "note": "[Compound 298, methyl (((1R,3S,5R)-2-(2-(3-acetyl-7-methyl-5-(2-methylpyrimidin-5-yl)-1H-indazol-1-yl)acetyl)-3-((6-bromo-3-methylpyridin-2-yl)carbamoyl)-2-azabicyclo[3.1.0]hexan-5-yl)methyl)-L-prolinate]", "IC50": "< 1"}, {"smiles": "CC(=O)c1nn(CC(=O)N2[C@H](C(=O)Nc3nc(Br)ccc3C)C[C@@]3(CN4CCC[C@H]4C(=O)O)C[C@@H]23)c2c(C)cc(-c3cnc(C)nc3)cc12", "note": "[Compound 299, (((1R,3S,5R)-2-(2-(3-acetyl-7-methyl-5-(2-methylpyrimidin-5-yl)-1H-indazol-1-yl)acetyl)-3-((6-bromo-3-methylpyridin-2-yl)carbamoyl)-2-azabicyclo[3.1.0]hexan-5-yl)methyl)-L-proline]", "IC50": "< 1"}, {"smiles": "CC(=O)c1nn(CC(=O)N2[C@H](C(=O)Nc3nc(Br)ccc3C)C[C@@]3(CNC(C)(C)C)C[C@@H]23)c2c(C)cc(-c3cnc(C)nc3)cc12", "note": "[Compound 300, (1R,3S,5R)-2-(2-(3-acetyl-7-methyl-5-(2-methylpyrimidin-5-yl)-1H-indazol-1-yl)acetyl)-N-(6-bromo-3-methylpyridin-2-yl)-5-((tert-butylamino)methyl)-2-azabicyclo[3.1.0]hexane-3-carboxamide]", "IC50": "< 1"}, {"smiles": "CC(=O)c1nn(CC(=O)N2[C@H](C(=O)Nc3nc(Br)ccc3CN3C(C)(C)CCCC3(C)C)C[C@@]3(C)C[C@@H]23)c2ccc(-c3cnc(C)nc3)cc12", "note": "[Compound 302, (1R,3S,5R)-2-(2-(3-acetyl-5-(2-methylpyrimidin-5-yl)-1H-indazol-1-yl)acetyl)-N-(6-bromo-3-((2,2,6,6-tetramethylpiperidin-1-yl)methyl)pyridin-2-yl)-5-methyl-2-azabicyclo[3.1.0]hexane-3-carboxamide]", "IC50": "< 1"}, {"smiles": "CC(=O)c1nn(CC(=O)N2C[C@@](F)(Cn3ccnn3)C[C@H]2C(=O)Nc2nc(Br)ccc2C)c2ccc(-c3cnc(C)nc3)cc12", "note": "[Compound 304, (2S,4R)-4-((1H-1,2,3-triazol-1-yl)methyl)-1-(2-(3-acetyl-5-(2-methylpyrimidin-5-yl)-1H-indazol-1-yl)acetyl)-N-(6-bromo-3-methylpyridin-2-yl)-4-fluoropyrrolidine-2-carboxamide]", "IC50": "< 1"}, {"smiles": "CC(=O)c1nn(CC(=O)N2[C@H](C(=O)Nc3nc(Br)ccc3C)C[C@@]3(CN4CCOCC4)C[C@@H]23)c2c(C)cc(-c3cnc(C)nc3)cc12", "note": "[Compound 305, (1R,3S,5R)-2-(2-(3-acetyl-7-methyl-5-(2-methylpyrimidin-5-yl)-1H-indazol-1-yl)acetyl)-N-(6-bromo-3-methylpyridin-2-yl)-5-(morpholinomethyl)-2-azabicyclo[3.1.0]hexane-3-carboxamide]", "IC50": "< 1"}, {"smiles": "CC(=O)c1nn(CC(=O)N2[C@H](C(=O)Nc3nc(Br)ccc3C)C[C@@]3(CN4CCC(F)(F)CC4)C[C@@H]23)c2c(C)cc(-c3cnc(C)nc3)cc12", "note": "[Compound 306, (1R,3S,5R)-2-(2-(3-acetyl-7-methyl-5-(2-methylpyrimidin-5-yl)-1H-indazol-1-yl)acetyl)-N-(6-bromo-3-methylpyridin-2-yl)-5-((4,4-difluoropiperidin-1-yl)methyl)-2-azabicyclo[3.1.0]hexane-3-carboxamide]", "IC50": "< 1"}, {"smiles": "CC(=O)c1nn(CC(=O)N2[C@H](C(=O)Nc3nc(Br)ccc3C)C[C@@]3(CNC(C)(C)C)C[C@@H]23)c2ccc(-c3cnc(C)nc3)cc12", "note": "[Compound 307, (1R,3S,5R)-2-(2-(3-acetyl-5-(2-methylpyrimidin-5-yl)-1H-indazol-1-yl)acetyl)-N-(6-bromo-3-methylpyridin-2-yl)-5-((tert-butylamino)methyl)-2-azabicyclo[3.1.0]hexane-3-carboxamide]", "IC50": "< 1"}, {"smiles": "CC(=O)c1nn(CC(=O)N2[C@H](C(=O)Nc3nc(Br)ccc3CN3CC4CCC3C4)C[C@@]3(C)C[C@@H]23)c2ccc(-c3cnc(C)nc3)cc12", "note": "(stereo partly drawn) [Compound 308, (1R,3S,5R)-N-(3-(2-azabicyclo[2.2.1]heptan-2-ylmethyl)-6-bromopyridin-2-yl)-2-(2-(3-acetyl-5-(2-methylpyrimidin-5-yl)-1H-indazol-1-yl)acetyl)-5-methyl-2-azabicyclo[3.1.0]hexane-3-carboxamide]", "IC50": "< 1"}, {"smiles": "CC(=O)c1nn(CC(=O)N2[C@H](C(=O)Nc3nc(Br)ccc3C)C[C@@]3(c4cn(C(C)C)nn4)C[C@@H]23)c2ccc(-c3cnc(C)nc3)cc12", "note": "[Compound 309, (1R,3S,5S)-2-(2-(3-acetyl-5-(2-methylpyrimidin-5-yl)-1H-indazol-1-yl)acetyl)-N-(6-bromo-3-methylpyridin-2-yl)-5-(1-isopropyl-1H-1,2,3-triazol-4-yl)-2-azabicyclo[3.1.0]hexane-3-carboxamide]", "IC50": "< 1"}]}]}
